Reference: PubChem BioAssay (NCI)
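Briefly, cells in 96-well plates were exposed to five compound concentrations for 48 h, and endpoints were estimated by linear interpolation. GI50 = concentration required for 50% inhibition of growth. The concentration for full growth arrest is given as TGI.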

Experiments:
Assay in all cases: NCI tumour cell line growth inhibition, 48 h
[1] = system: ACHN renal
[2] = system: NCI-H226 lung
[3] = system: SN12C renal
[4] = system: NCI/ADR-RES ovarian
[5] = system: HCT-15 colon
[6] = system: U251 CNS
[7] = system: MCF7 breast
[8] = system: SF-539 CNS
[9] = system: SK-MEL-28 melanoma
[10] = system: HCT-116 colon

## COc1ccc(C2CC(=O)Nc3c2c(C)nn3-c2nc3ccccc3[nH]2)cc1 (stereo not given)
[1]
  GI50: 3.55 µM
  TGI: > 57.4 µM
[2]
  GI50: 2.58 µM
  TGI: 7.9 µM
[3]
  GI50: 3.28 µM
  TGI: > 53.7 µM
[4]
  GI50: 5.61 µM
  TGI: > 100 µM
[5]
  GI50: 3.49 µM
  TGI: > 100 µM
[6]
  GI50: 2.56 µM
  TGI: 7.04 µM
[7]
  GI50: 3.11 µM
  TGI: > 34 µM
[8]
  GI50: 2.16 µM
  TGI: 4.94 µM
[9]
  GI50: 3.92 µM
  TGI: > 55.9 µM
[10]
  GI50: 2.12 µM
  TGI: 4.38 µM

## C#Cc1cccc(NC(=O)Nc2ccc(NC(=O)CCl)cc2)c1
[1]
  GI50: 14 µM
  TGI: 26 µM
[2]
  GI50: 22.4 µM
  TGI: 73.9 µM
[3]
  GI50: 12.7 µM
  TGI: 29.8 µM
[4]
  GI50: 23.3 µM
  TGI: 70 µM
[5]
  GI50: 15.4 µM
  TGI: 36.3 µM
[6]
  GI50: 15.1 µM
  TGI: 35.2 µM
[7]
  GI50: 27.8 µM
  TGI: > 82.5 µM
[8]
  GI50: 13.3 µM
  TGI: 25 µM
[9]
  GI50: > 82.5 µM
  TGI: > 82.5 µM
[10]
  GI50: 20.1 µM
  TGI: > 82.5 µM

## N#Cc1c(NC(=O)c2cccs2)[n+]([O-])c2ccccc2[n+]1[O-]
[1]
  GI50: > 100 µM
  TGI: > 100 µM
[2]
  GI50: 86.4 µM
  TGI: > 100 µM
[3]
  GI50: > 100 µM
  TGI: > 100 µM
[4]
  GI50: > 100 µM
  TGI: > 100 µM
[5]
  GI50: 64.1 µM
  TGI: > 100 µM
[6]
  GI50: > 100 µM
  TGI: > 100 µM
[7]
  GI50: > 100 µM
  TGI: > 100 µM
[8]
  GI50: > 100 µM
  TGI: > 100 µM
[9]
  GI50: > 100 µM
  TGI: > 100 µM
[10]
  GI50: > 100 µM
  TGI: > 100 µM

## CC1C(=O)N=C2C(=CN(Cc3ccccc3)c3ccccc32)C(=O)N1C (stereo not given)
[1]
  TGI: > 100 µM
[2]
  TGI: > 100 µM
[3]
  TGI: > 100 µM
[4]
  TGI: > 100 µM
[5]
  TGI: > 100 µM
[6]
  TGI: > 100 µM
[7]
  TGI: > 100 µM
[8]
  TGI: > 100 µM
[9]
  TGI: > 100 µM
[10]
  TGI: > 100 µM

## O=C(CNC(=O)c1cccc2ccccc12)Nc1ccccc1Oc1cccc(O)c1
[1]
  GI50: 17.4 µM
  TGI: > 25 µM
[2]
  GI50: > 25 µM
  TGI: > 25 µM
[3]
  GI50: > 25 µM
  TGI: > 25 µM
[4]
  GI50: 7.94 µM
  TGI: > 25 µM
[5]
  GI50: 3.14 µM
  TGI: > 25 µM
[6]
  GI50: 8.41 µM
  TGI: > 25 µM
[7]
  GI50: 4.51 µM
  TGI: > 25 µM
[8]
  GI50: 4.06 µM
  TGI: 13.8 µM
[9]
  GI50: > 25 µM
  TGI: > 25 µM
[10]
  GI50: 1.36 µM
  TGI: > 25 µM

## Cc1c(C(=O)/C=C/c2ccc(O)cc2)nnn1-c1ccnc2c(C(F)(F)F)cccc12
[1]
  GI50: 31.5 µM
  TGI: > 100 µM
[2]
  GI50: 27.3 µM
  TGI: > 100 µM
[3]
  GI50: 18 µM
  TGI: > 100 µM
[4]
  GI50: 13.9 µM
  TGI: > 100 µM
[5]
  GI50: 15.1 µM
  TGI: > 100 µM
[6]
  GI50: 5.14 µM
  TGI: 69.8 µM
[7]
  GI50: 23.5 µM
  TGI: > 100 µM
[8]
  GI50: 72.5 µM
  TGI: > 100 µM
[9]
  GI50: 51.8 µM
  TGI: > 100 µM
[10]
  GI50: 6.66 µM
  TGI: > 100 µM

## COc1ncnc2c(NC3OC(CO)C(O)C3O)ncnc12 (stereo not given)
[1]
  TGI: > 53.7 µM
[2]
  TGI: 3.82 µM
[3]
  TGI: 10.6 µM
[4]
  TGI: 6.2 µM
[5]
  TGI: > 100 µM
[6]
  TGI: > 100 µM
[7]
  TGI: 0.443 µM
[8]
  TGI: 1.33 µM
[9]
  TGI: > 100 µM
[10]
  TGI: 0.604 µM

## COC(=O)Nc1ccc2ccc3c(NC(=O)OC)ccc4ccc1c2c43 (tested in a mixture with another compound)
[1]
  GI50: 6.68 µM
  TGI: 15 µM
[2]
  GI50: 9.2 µM
  TGI: 31.3 µM
[3]
  GI50: 18.9 µM
  TGI: > 50 µM
[4]
  GI50: 4.59 µM
  TGI: 19.2 µM
[5]
  GI50: 2.63 µM
  TGI: > 50 µM
[6]
  GI50: 12 µM
  TGI: > 50 µM
[7]
  GI50: 27.1 µM
  TGI: > 50 µM
[8]
  GI50: 6.76 µM
  TGI: 17.8 µM
[9]
  GI50: 35.2 µM
  TGI: > 50 µM
[10]
  GI50: 5.43 µM
  TGI: > 50 µM

## C[C@]12CC[C@H]3[C@@H](CC=C4C[C@@H](O)CC[C@@]43C)[C@@H]1C/C(=C\c1cccc(OCCN3CCOCC3)c1)[C@@H]2O
[1]
  GI50: > 100 µM
  TGI: > 100 µM
[2]
  GI50: > 100 µM
  TGI: > 100 µM
[3]
  GI50: > 100 µM
  TGI: > 100 µM
[4]
  GI50: 74.1 µM
  TGI: > 100 µM
[5]
  GI50: 38.9 µM
  TGI: > 100 µM
[6]
  GI50: > 100 µM
  TGI: > 100 µM
[7]
  GI50: > 100 µM
  TGI: > 100 µM
[8]
  GI50: > 100 µM
  TGI: > 100 µM
[9]
  GI50: 22.4 µM
  TGI: 56.4 µM
[10]
  GI50: 80.6 µM
  TGI: > 100 µM

## COc1nccc(-c2c(-c3ccc(F)cc3)ncn2C2CCC(O)CC2)n1 (stereo not given)
[1]
  GI50: 14.8 µM
  TGI: > 100 µM
[2]
  GI50: > 77.8 µM
  TGI: > 100 µM
[3]
  GI50: 61.8 µM
  TGI: > 100 µM
[4]
  GI50: > 100 µM
  TGI: > 100 µM
[5]
  GI50: 36.6 µM
  TGI: > 100 µM
[6]
  GI50: > 86.9 µM
  TGI: > 100 µM
[7]
  GI50: 24.9 µM
  TGI: > 100 µM
[8]
  GI50: > 100 µM
  TGI: > 100 µM
[9]
  GI50: > 58.3 µM
  TGI: > 100 µM
[10]
  GI50: 79.3 µM
  TGI: > 100 µM

## S=C(Nc1ccccc1)c1ccccn1
[1]
  GI50: 50.6 µM
  TGI: > 100 µM
[2]
  GI50: > 100 µM
  TGI: > 100 µM
[3]
  GI50: 95.9 µM
  TGI: > 100 µM
[4]
  GI50: 52.1 µM
  TGI: > 100 µM
[5]
  GI50: 40.3 µM
  TGI: > 100 µM
[6]
  GI50: 38 µM
  TGI: > 100 µM
[7]
  GI50: > 100 µM
  TGI: > 100 µM
[8]
  GI50: > 100 µM
  TGI: > 100 µM
[9]
  GI50: > 100 µM
  TGI: > 100 µM
[10]
  GI50: 51.3 µM
  TGI: > 100 µM

## Cc1cccc(C(C)O)n1 (stereo not given)
[1]
  TGI: > 100 µM
[2]
  TGI: > 100 µM
[3]
  TGI: > 100 µM
[4]
  TGI: > 100 µM
[5]
  TGI: > 100 µM
[6]
  TGI: > 100 µM
[7]
  TGI: > 100 µM
[8]
  TGI: > 100 µM
[9]
  TGI: > 100 µM
[10]
  TGI: > 100 µM

## COc1ccc2c(c1)[nH]c(=O)c1c3cccnc3cn21
[1]
  GI50: 0.082 µM
  TGI: 13 µM
[2]
  GI50: 0.0409 µM
  TGI: 18.6 µM
[3]
  GI50: 0.0802 µM
  TGI: > 100 µM
[4]
  GI50: 0.0231 µM
  TGI: 0.0571 µM
[5]
  GI50: 0.043 µM
  TGI: 29.3 µM
[6]
  GI50: 0.041 µM
  TGI: 12.2 µM
[7]
  GI50: 0.0965 µM
  TGI: 14.1 µM
[8]
  GI50: 0.033 µM
  TGI: 2.39 µM
[9]
  GI50: 0.054 µM
  TGI: > 100 µM
[10]
  GI50: 0.0496 µM
  TGI: 14.3 µM

## O=c1c2cc(Br)ccc2oc2ccc(Br)cc12
[1]
  TGI: > 100 µM
[2]
  TGI: > 100 µM
[3]
  TGI: > 100 µM
[4]
  TGI: > 100 µM
[5]
  TGI: > 100 µM
[6]
  TGI: > 100 µM
[7]
  TGI: > 100 µM
[8]
  TGI: > 100 µM
[9]
  TGI: > 100 µM
[10]
  TGI: > 100 µM
